Measured values from publication PMC5003625 (Journal of medicinal chemistry, 2016).

Assays:
EZH2 = conditions: cited from earlier work; for selectivity for EZH2 over EZH1: reported inhibitors
[1] = target: EZH1 pentameric complex (EZH1:EED:SUZ12:RBBP4:AEBP2) (Homo sapiens, UniProt Q92800); assay: Methyltransferase activity assay; format: biochemical
[2] = target: EZH2 trimeric complex (EZH2:EED:SUZ12) (Homo sapiens, UniProt Q15910); assay: Methyltransferase activity assay; format: biochemical; conditions: for fold loss of potency for EZH2: relative to the parent compound of the sentence (5, 24 or 53)
Sequence of EZH2 trimeric complex (EZH2:EED:SUZ12) (Q15910 whole entry): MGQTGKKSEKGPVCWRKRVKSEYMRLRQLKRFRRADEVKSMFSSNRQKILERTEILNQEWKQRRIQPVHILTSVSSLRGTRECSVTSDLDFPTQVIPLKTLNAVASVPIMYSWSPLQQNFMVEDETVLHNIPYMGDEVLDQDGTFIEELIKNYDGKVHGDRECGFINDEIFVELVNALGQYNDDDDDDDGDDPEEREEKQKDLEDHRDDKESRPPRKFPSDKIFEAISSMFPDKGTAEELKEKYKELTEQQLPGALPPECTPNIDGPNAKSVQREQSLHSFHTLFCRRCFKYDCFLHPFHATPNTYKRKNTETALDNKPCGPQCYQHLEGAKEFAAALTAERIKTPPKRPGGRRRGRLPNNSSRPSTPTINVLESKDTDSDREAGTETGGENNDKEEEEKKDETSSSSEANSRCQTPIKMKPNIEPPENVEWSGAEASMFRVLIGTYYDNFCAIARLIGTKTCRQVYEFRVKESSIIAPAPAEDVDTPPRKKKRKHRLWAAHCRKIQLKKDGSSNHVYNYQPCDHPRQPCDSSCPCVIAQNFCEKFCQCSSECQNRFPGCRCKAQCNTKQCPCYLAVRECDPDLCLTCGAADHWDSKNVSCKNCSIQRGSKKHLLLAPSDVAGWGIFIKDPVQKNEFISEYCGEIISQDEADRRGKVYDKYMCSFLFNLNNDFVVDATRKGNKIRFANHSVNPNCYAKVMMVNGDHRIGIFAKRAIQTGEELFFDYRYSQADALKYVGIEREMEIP
Sequence of EZH2 trimeric complex (EZH2:EED:SUZ12) (O75530 whole entry partner): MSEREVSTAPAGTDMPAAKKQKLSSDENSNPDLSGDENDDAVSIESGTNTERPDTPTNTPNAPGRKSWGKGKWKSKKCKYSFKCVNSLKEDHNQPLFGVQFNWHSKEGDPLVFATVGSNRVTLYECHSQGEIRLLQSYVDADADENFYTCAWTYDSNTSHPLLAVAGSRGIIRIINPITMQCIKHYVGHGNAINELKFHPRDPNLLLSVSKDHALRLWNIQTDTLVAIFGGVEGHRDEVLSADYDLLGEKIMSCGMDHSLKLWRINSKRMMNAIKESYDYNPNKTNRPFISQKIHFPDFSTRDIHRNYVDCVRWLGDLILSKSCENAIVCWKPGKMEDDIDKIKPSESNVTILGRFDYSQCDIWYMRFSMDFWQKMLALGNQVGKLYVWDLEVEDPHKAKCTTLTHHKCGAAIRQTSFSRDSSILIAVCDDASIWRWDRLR
Sequence of EZH2 trimeric complex (EZH2:EED:SUZ12) (Q15022 whole entry partner): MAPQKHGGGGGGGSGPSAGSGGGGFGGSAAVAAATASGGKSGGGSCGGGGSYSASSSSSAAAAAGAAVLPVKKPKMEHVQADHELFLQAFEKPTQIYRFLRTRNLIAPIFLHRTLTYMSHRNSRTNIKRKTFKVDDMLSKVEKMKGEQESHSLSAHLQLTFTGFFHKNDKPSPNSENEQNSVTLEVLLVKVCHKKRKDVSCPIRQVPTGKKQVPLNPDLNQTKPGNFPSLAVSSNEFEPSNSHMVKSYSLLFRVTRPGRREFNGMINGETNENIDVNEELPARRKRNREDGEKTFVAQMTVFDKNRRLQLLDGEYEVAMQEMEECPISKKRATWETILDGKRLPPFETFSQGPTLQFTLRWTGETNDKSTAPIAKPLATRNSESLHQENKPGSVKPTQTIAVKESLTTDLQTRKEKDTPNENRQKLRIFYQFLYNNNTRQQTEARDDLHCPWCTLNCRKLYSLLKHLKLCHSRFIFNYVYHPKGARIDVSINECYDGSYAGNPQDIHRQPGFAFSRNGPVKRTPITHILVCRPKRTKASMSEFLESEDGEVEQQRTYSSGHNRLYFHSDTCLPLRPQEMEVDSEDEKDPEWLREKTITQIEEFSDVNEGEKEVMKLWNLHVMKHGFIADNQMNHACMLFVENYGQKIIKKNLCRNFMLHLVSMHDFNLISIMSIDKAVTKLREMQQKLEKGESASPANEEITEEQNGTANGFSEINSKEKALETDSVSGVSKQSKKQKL

Sequence of EZH1 pentameric complex (EZH1:EED:SUZ12:RBBP4:AEBP2) (Q92800 whole entry): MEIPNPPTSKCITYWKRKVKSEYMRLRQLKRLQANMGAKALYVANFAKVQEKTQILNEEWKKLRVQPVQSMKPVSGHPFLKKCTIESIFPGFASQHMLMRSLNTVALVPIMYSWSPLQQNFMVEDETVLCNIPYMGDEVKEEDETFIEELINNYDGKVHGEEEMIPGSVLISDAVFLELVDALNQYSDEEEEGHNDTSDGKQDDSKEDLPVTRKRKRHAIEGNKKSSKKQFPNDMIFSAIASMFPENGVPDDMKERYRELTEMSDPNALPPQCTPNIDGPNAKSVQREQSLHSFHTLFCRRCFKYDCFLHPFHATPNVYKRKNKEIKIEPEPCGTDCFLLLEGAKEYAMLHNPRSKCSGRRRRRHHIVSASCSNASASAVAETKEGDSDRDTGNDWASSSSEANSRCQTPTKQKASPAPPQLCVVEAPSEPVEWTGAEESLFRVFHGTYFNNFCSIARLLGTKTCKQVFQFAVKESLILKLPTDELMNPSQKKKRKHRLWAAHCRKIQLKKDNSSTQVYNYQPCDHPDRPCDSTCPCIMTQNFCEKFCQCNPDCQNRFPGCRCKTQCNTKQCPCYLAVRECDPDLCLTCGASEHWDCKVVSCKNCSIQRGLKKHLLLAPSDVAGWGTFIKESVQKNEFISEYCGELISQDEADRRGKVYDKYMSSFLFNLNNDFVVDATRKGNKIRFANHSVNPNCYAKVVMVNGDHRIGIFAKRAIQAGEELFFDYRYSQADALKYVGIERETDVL
Sequence of EZH1 pentameric complex (EZH1:EED:SUZ12:RBBP4:AEBP2) (O75530 whole entry partner): as the sequence (O75530 whole entry partner) above
Sequence of EZH1 pentameric complex (EZH1:EED:SUZ12:RBBP4:AEBP2) (Q15022 whole entry partner): as the sequence (Q15022 whole entry partner) above
Sequence of EZH1 pentameric complex (EZH1:EED:SUZ12:RBBP4:AEBP2) (Q09028 whole entry partner): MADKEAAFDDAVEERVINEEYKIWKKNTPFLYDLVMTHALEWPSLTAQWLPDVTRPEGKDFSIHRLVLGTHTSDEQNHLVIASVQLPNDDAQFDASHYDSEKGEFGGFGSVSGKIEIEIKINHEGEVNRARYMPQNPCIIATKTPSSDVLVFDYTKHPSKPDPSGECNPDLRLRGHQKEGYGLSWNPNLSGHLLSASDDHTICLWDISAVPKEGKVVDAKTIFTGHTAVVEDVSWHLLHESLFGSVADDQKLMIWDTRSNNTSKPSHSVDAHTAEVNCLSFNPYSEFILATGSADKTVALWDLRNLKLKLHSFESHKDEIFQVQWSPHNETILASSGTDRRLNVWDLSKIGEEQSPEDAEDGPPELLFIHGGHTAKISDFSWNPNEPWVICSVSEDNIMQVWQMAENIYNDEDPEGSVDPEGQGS
Sequence of EZH1 pentameric complex (EZH1:EED:SUZ12:RBBP4:AEBP2) (Q6ZN18 whole entry partner): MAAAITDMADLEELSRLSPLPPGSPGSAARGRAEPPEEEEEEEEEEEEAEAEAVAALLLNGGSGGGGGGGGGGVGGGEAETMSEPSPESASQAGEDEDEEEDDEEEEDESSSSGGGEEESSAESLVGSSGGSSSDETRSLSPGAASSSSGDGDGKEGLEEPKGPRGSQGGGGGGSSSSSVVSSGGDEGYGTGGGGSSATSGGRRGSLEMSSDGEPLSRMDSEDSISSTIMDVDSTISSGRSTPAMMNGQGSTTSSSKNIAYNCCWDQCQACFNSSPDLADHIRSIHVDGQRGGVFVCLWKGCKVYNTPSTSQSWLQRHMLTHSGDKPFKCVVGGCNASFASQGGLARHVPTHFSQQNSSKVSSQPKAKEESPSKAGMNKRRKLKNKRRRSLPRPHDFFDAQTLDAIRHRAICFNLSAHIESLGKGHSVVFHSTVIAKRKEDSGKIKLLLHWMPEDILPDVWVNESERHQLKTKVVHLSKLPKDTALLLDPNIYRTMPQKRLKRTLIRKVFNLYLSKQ

In the case of Cc1cc(C)c(CNC(=O)c2cc(-c3ccc(CN4CCOCC4)cc3)cc3c2cnn3C2CCCC2)c(=O)[nH]1 [Compound 1, EPZ005687], the “selectivity for EZH2 over EZH1” value (EZH2) is given as 50 fold.
For CC[C@H](C)n1cc(C)c2c(C(=O)NCc3c(C)cc(C)[nH]c3=O)cc(-c3ccc(N4CCNCC4)nc3)cc21 [Compound 2, GSK126], the “selectivity for EZH2 over EZH1” value (EZH2) is listed as 150 fold.
In the case of CCCc1cc(C)[nH]c(=O)c1CNC(=O)c1cc(-c2ccnc(N3CCN(C)CC3)c2)cc2c1cnn2C(C)C [Compound 3, GSK343], the “selectivity for EZH2 over EZH1” value (EZH2) is given as 60 fold.
For CCC(CC)n1ccc2c(C(=O)NCc3c(C)cc(C)[nH]c3=O)cc(C#N)cc21 [Compound 4, EI1], the “selectivity for EZH2 over EZH1” value (EZH2) is given as 140 fold.
In the case of CCCc1cc(C)[nH]c(=O)c1CNC(=O)c1cc(-c2ccc(N3CCN(C(C)C)CC3)nc2)cc2c1cnn2C(C)C [Compound 5, UNC1999], the IC50 (EZH2; read-out: IC50 EZH2, previously reported) is given as under 0.01 µM.
For COc1cc(C)[nH]c(=O)c1CNC(=O)c1c(C)n([C@H](C)C2CCOCC2)c2ccccc12 [Compound 8, CPI-360], the “selectivity for EZH2 over EZH1” value (EZH2) is given as 100 fold.
In the case of CCN(c1cc(-c2ccc(N3CCN(C)CC3)nc2)cc(C(=O)NCc2c3c(c(C)[nH]c2=O)CCCC3)c1C)C1CCOCC1 [Compound 10, ZLD1039], the “selectivity for EZH2 over EZH1” value (EZH2) is given as 12 fold.
In the case of CC(C)N1CCN(c2ccc(-c3cc(C(=O)NCc4cnc[nH]c4=O)c4cnn(C(C)C)c4c3)cn2)CC1 [Compound 41, 1-Isopropyl-6-(6-(4-isopropylpiperazin-1-yl)pyridin-3-yl)-N-((6-oxo-1,6-dihydropyrimidin-5-yl)methyl)-1H-indazole-4-carboxamide], the “inhibitory activity against EZH1, in words” value [1] is reported as “completely abrogated inhibitory activity” and the “inhibitory activity against EZH2, in words” value [2] is reported as “completely abrogated inhibitory activity”.
With Cc1[nH]c(=O)[nH]c(=O)c1CNC(=O)c1cc(-c2ccc(N3CCN(C(C)C)CC3)nc2)cc2c1cnn2C(C)C [Compound 42, 1-Isopropyl-6-(6-(4-isopropylpiperazin-1-yl)pyridin-3-yl)-N-((6-methyl-2,4-dioxo-1,2,3,4-tetrahydropyrimidin-5-yl)methyl)-1H-in-dazole-4-carboxamide] the “inhibitory activity against EZH1, in words” value [1] was “completely abrogated inhibitory activity” and the “inhibitory activity against EZH2, in words” value [2] was “completely abrogated inhibitory activity”.
In the case of CC(C)N1CCN(c2ccc(-c3cc(C(=O)NC4CC(C)(C)NC(C)(C)C4)c4cnn(C(C)C)c4c3)cn2)CC1 [Compound 43, 1-Isopropyl-6-(6-(4-isopropylpiperazin-1-yl)pyridin-3-yl)-N-(2,2,6,6-tetramethylpiperidin-4-yl)-1H-indazole-4-carboxamide], the “inhibitory activity against EZH1, in words” value [1] is reported as “complete loss of potency” and the “inhibitory activity against EZH2, in words” value [2] is reported as “complete loss of potency”.
In the case of CCCc1cc(C)[nH]c(=O)c1CNC(=O)c1cc(-c2ccc(N3CCN(C(C)C)CC3)nc2)cc2nn(C(C)C)cc12 [Compound 44, 2-Isopropyl-6-(6-(4-isopropylpiperazin-1-yl)pyridin-3-yl)-N-((6-methyl-2-oxo-4-propyl-1,2-dihydropyridin-3-yl)methyl)-2H-inda-zole-4-carboxamide], the “fold loss of potency for EZH1” value ([1]; relative to the parent compound 5) is reported as “more than 30 fold” and the “fold loss of potency for EZH2” value [2] is reported as “more than 30 fold”.
With CCCc1cc(C)[nH]c(=O)c1CNC(=O)c1nn(C(C)C)c2cc(-c3ccc(N4CCN(C(C)C)CC4)nc3)ccc12 [Compound 45, 1-Isopropyl-6-(6-(4-isopropylpiperazin-1-yl)pyridin-3-yl)-N-((6-methyl-2-oxo-4-propyl-1,2-dihydropyridin-3-yl)methyl)-1H-inda-zole-3-carboxamide] the “inhibitory activity against EZH1, in words” value [1] was “obliterated the inhibitory activity” and the “inhibitory activity against EZH2, in words” value [2] was “obliterated the inhibitory activity”.
With CCCc1cc(C)[nH]c(=O)c1CNC(=O)c1nn(C(C)C)c2ccc(-c3ccc(N4CCN(C(C)C)CC4)nc3)cc12 [Compound 46, 1-Isopropyl-5-(6-(4-isopropylpiperazin-1-yl)pyridin-3-yl)-N-((6-methyl-2-oxo-4-propyl-1,2-dihydropyridin-3-yl)methyl)-1H-inda-zole-3-carboxamide] the “inhibitory activity against EZH1, in words” value [1] was “complete loss of potency” and the “inhibitory activity against EZH2, in words” value [2] was “complete loss of potency”.
In the case of CCCc1cc(C)[nH]c(=O)c1CNC(=O)c1cccn2c(-c3ccc(N4CCN(C(C)C)CC4)nc3)cnc12 [Compound 48, 3-(6-(4-Isopropylpiperazin-1-yl)pyridin-3-yl)-N-((6-methyl-2-oxo-4-propyl-1,2-dihydropyridin-3-yl)methyl)imidazo[1,2-a]pyridine-8-carboxamide], the “inhibitory activity against EZH1, in words” value [1] is reported as “did not display any inhibitory activity” and the “inhibitory activity against EZH2, in words” value [2] is reported as “did not display any inhibitory activity”.
In the case of CCCc1cc(C)[nH]c(=O)c1CNC(=O)c1cnn2c(-c3ccc(N4CCN(C(C)C)CC4)nc3)cccc12 [Compound 49, 7-(6-(4-Isopropylpiperazin-1-yl)pyridin-3-yl)-N-((6-methyl-2-oxo-4-propyl-1,2-dihydropyridin-3-yl)methyl)pyrazolo[1,5-a]pyridine-3-carboxamide], the “inhibitory activity against EZH1, in words” value [1] is reported as “did not display any inhibitory activity” and the “inhibitory activity against EZH2, in words” value [2] is reported as “did not display any inhibitory activity”.
With CCCc1cc(C)[nH]c(=O)c1CNC(=O)c1cn2ccc(-c3ccc(N4CCN(C(C)C)CC4)nc3)cc2n1 [Compound 50, 7-(6-(4-Isopropylpiperazin-1-yl)pyridin-3-yl)-N-((6-methyl-2-oxo-4-propyl-1,2-dihydropyridin-3-yl)methyl)imidazo[1,2-a]pyridine-2-carboxamide] the “inhibitory activity against EZH1, in words” value [1] was “inactive” and the “inhibitory activity against EZH2, in words” value [2] was “inactive”.
With CCCc1cc(C)[nH]c(=O)c1CNC(=O)c1cc(-c2ccc(N3CCN(C(C)C)CC3)nc2)cc2c1cnn2C [Compound 55, 6-(6-(4-Isopropylpiperazin-1-yl)pyridin-3-yl)-1-methyl-N-((6-methyl-2-oxo-4-propyl-1,2-dihydropyridin-3-yl)methyl)-1H-inda-zole-4-carboxamide] the “inhibitory activity against EZH1, in words” value [1] was “did not have appreciable inhibitory activity” and the “fold loss of potency for EZH2” value [2] was 10–20 fold.
For CCCc1cc(C)[nH]c(=O)c1CNC(=O)c1cc(-c2ccc(N3CCN(C(C)C)CC3)nc2)cc2c1cnn2C1CCCCCC1 [Compound 56, 1-Cycloheptyl-6-(6-(4-isopropylpiperazin-1-yl)pyridin-3-yl)-N-((6-methyl-2-oxo-4-propyl-1,2-dihydropyridin-3-yl)methyl)-1H-inda-zole-4-carboxamide], the “inhibitory activity against EZH1, in words” value [1] was “did not have appreciable inhibitory activity” and the “fold loss of potency for EZH2” value [2] was 10–20 fold.
For CCCc1cc(C)[nH]c(=O)c1CNC(=O)c1cc(-c2ccc(N3CCN(CC)CC3)nc2)cc2c1cnn2C(C)C [Compound 64], the “inhibitory activity against EZH1, in words” value [1] was “did not affect the potency” and the “inhibitory activity against EZH2, in words” value [2] was “did not affect the potency”.
For CCCc1cc(C)[nH]c(=O)c1CNC(=O)c1cc(-c2ccc(N3CCNCC3)nc2)cc2c1cnn2C(C)C [Compound 65], the “inhibitory activity against EZH1, in words” value [1] was “did not affect the potency” and the “inhibitory activity against EZH2, in words” value [2] was “did not affect the potency”.
